Laboratory results taken from ChEMBL document CHEMBL1268836, “Rational design of novel pyrrolidine derivatives as orally active neurokinin-3 receptor antagonists” (Bioorg Med Chem Lett, 2010).
Converted amounts (≈) assume the structure as drawn. The source made the active and inactive calls. The calls are words filed in the database; no cut-off is given here.

Tests used:
[1] = Aqueous solubility of the compound; assay type: physicochemical
[2] = Lipophilicity, log D of the compound; assay type: physicochemical; details: octanol/water
Gerbillinae [3] = experiment: Antipsychotic activity gerbils assessed as reversal of senktide-induced locomotor activity at 30 mg/kg, po administered before senktide challenge; assay type: functional, organism-based; parameters: dose 30 mg/kg
[4] = Ratio of drug level in brain to plasma in gerbils at 30 mg/kg, po; assay type: ADME, organism-based; parameters: dose 30 mg/kg, route oral; details: gerbillinae, read-out: BPR
Gerbillinae [5] = experiment: Antipsychotic activity gerbils assessed as reversal of senktide-induced locomotor activity at 100 mg/kg, po administered before senktide challenge; assay type: functional, organism-based; parameters: dose 100 mg/kg
Substance-P receptor = Substance-P receptor (Homo sapiens, UniProt P25103); experiment: Displacement of [3H]substance P from human neurokinin NK1 receptor expressed in CHO cell; assay type: cell-based
Sequence of Substance-P receptor (P25103 whole entry): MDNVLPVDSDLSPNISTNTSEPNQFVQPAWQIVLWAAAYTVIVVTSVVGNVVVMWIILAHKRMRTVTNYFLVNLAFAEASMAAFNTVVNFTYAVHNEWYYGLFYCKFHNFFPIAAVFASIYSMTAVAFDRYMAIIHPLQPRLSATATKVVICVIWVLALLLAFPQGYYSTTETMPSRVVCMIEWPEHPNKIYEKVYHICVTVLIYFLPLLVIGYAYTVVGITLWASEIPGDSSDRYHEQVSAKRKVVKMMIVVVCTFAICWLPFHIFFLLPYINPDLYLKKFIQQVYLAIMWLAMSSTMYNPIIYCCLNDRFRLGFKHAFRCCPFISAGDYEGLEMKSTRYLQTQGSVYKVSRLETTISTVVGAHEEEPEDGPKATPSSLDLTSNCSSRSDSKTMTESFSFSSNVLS

Neuromedin-K receptor = target: T1, Neuromedin-K receptor (Homo sapiens, UniProt P29371); experiment: Displacement of [3H]SR142801 from human neurokinin NK3 receptor expressed in HEK293-EBNA cells; assay type: cell-based
T1 sequence (P29371 whole entry): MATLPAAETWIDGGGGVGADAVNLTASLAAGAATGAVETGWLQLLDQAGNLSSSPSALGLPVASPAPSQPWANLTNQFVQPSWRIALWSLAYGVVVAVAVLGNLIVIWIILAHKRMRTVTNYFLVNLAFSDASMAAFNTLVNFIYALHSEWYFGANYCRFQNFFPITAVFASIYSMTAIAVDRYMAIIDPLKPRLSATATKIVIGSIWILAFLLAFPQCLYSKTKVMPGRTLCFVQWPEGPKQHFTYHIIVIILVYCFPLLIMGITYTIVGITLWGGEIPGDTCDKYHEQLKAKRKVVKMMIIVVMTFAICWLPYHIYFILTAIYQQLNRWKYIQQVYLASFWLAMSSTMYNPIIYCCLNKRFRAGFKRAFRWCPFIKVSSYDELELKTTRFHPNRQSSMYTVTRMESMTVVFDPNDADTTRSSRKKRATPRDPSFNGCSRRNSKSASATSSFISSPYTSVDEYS

Structure (SMILES)	Ki (Substance-P receptor) [nM]	Ki (Neuromedin-K receptor; read-out: Ki) [nM]	Ki (Neuromedin-K receptor; hek293-ebna)	further results
CN(C)CCN1CCN(C(=O)N2C[C@H](c3ccc(Cl)c(Cl)c3)[C@@H](N(C)Cc3ccc(C(F)(F)F)c(F)c3)C2)CC1	–	–	–	solubility [1]: 495 µg/mL (≈ 819 µM); logD [2]: 2.9; Activity (Gerbillinae [3]): Active; Kp [4]: 1.6
CC(=O)N(C)C1(c2ccccc2)CCN(CCC[C@]2(c3ccc(Cl)c(Cl)c3)CCCN(C(=O)c3ccccc3)C2)CC1	–	–	–	Activity (Gerbillinae [5]): Active
CN(C(=O)C(C)(C)c1cc(C(F)(F)F)cc(C(F)(F)F)c1)[C@H]1CN(C(=O)N(CCO)CCO)C[C@@H]1c1ccc(F)cc1 (racemic)	1.1	192	–	–
CC(=O)N1CCN(C(=O)N2C[C@H](c3ccc(F)cc3)[C@@H](N(C)C(=O)C(C)(C)c3cc(C(F)(F)F)cc(C(F)(F)F)c3)C2)CC1 (racemic)	1.4	370	–	–
CN(C(=O)C(C)(C)c1cc(C(F)(F)F)cc(C(F)(F)F)c1)[C@H]1CN(C(=O)N2CCN(S(C)(=O)=O)CC2)C[C@@H]1c1ccccc1 (racemic)	–	100	–	–
CN(C(=O)C(C)(C)c1cc(C(F)(F)F)cc(C(F)(F)F)c1)[C@H]1CNC[C@@H]1c1ccc(F)cc1 (racemic)	0.9	–	Not Active	–
CN(C(=O)C(C)(C)c1cc(C(F)(F)F)cc(C(F)(F)F)c1)[C@H]1CN(C(=O)NCCO)C[C@@H]1c1ccc(F)cc1 (racemic)	0.6	298	–	–
CN(C(=O)C(C)(C)c1cc(C(F)(F)F)cc(C(F)(F)F)c1)[C@H]1CN(Cc2ccccc2)C[C@@H]1c1ccc(F)cc1 (racemic)	–	–	Not Active	–
CN(C(=O)c1cc(C(F)(F)F)cc(C(F)(F)F)c1)[C@H]1CN(C(=O)N2CCN(S(C)(=O)=O)CC2)C[C@@H]1c1ccccc1 (racemic)	–	–	Not Active	–
CS(=O)(=O)N1CCN(C(=O)N2C[C@H](NC(=O)c3cc(C(F)(F)F)cc(C(F)(F)F)c3)[C@@H](c3ccccc3)C2)CC1 (racemic)	–	–	Not Active	–
CN(Cc1ccc(C(F)(F)F)c(F)c1)[C@H]1CN(C(=O)N2CCN(S(C)(=O)=O)CC2)C[C@@H]1c1ccc(Cl)c(Cl)c1 (racemic)	–	–	–	solubility [1]: < 1 µg/mL; logD [2]: > 4

Second part, led by results:

Ki (Substance-P receptor) [nM]	Ki (Neuromedin-K receptor; read-out: Ki) [nM]	Ki (Neuromedin-K receptor; hek293-ebna)	Structure (SMILES)	further results
2.1	165	–	CN(C(=O)C(C)(C)c1cc(C(F)(F)F)cc(C(F)(F)F)c1)[C@H]1CN(C(=O)N2CCN(S(C)(=O)=O)CC2)C[C@@H]1c1ccc(F)cc1 (racemic)	–
–	–	Not Active	CN(C(=O)Cc1cc(C(F)(F)F)cc(C(F)(F)F)c1)[C@H]1CN(C(=O)N2CCN(S(C)(=O)=O)CC2)C[C@@H]1c1ccccc1 (racemic)	–
–	–	Not Active	CN(CC(C)(C)c1cc(C(F)(F)F)cc(C(F)(F)F)c1)[C@H]1CN(C(=O)N2CCN(S(C)(=O)=O)CC2)C[C@@H]1c1ccccc1 (racemic)	–
–	–	Not Active	CN(CCc1cc(C(F)(F)F)cc(C(F)(F)F)c1)[C@H]1CN(C(=O)N2CCN(S(C)(=O)=O)CC2)C[C@@H]1c1ccccc1 (racemic)	–
–	1300	–	CN(Cc1cc(C(F)(F)F)cc(C(F)(F)F)c1)[C@H]1CN(C(=O)N2CCN(S(C)(=O)=O)CC2)C[C@@H]1c1ccccc1 (racemic)	–
